Reference: PubChem BioAssay AID192 (DTP/NCI, 2004)
Several values for one entry are separate records, joined by “and”; a condition that tells them apart may be missing. Identical values can stand only once. Toxic doses and inconclusive results are not listed. How the source made its calls: active means survival T/C of 150% or more; inactive means T/C below 125% in these data.

Tested on: BDF1 mice, B16 melanoma ip, median survival T/C
Assay: NCI In Vivo Anticancer Drug Screen. Data for tumor model B16 Melanoma (intraperitoneal) in B6D2F1 (BDF1) mice
Conditions: endpoint: median survival time, higher = longer survival
Outline: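 Survival or tumor size is measured after treatment of tumor-bearing mice and normalised to the vehicle-treated control group.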

[1] = dose: 25.0 mg/kg/injection, schedule: Q01DX009 (ip), vehicle: saline with Tween-80
[2] = dose: 50.0 mg/kg/injection, schedule: Q01DX009 (ip), vehicle: saline with Tween-80
[3] = dose: 100.0 mg/kg/injection, schedule: Q01DX009 (ip), vehicle: saline with Tween-80
[4] = dose: 0.78 mg/kg/injection, schedule: Q01DX009 (ip), vehicle: Klucel (hydroxypropylcellulose) (HPC)
[5] = dose: 1.56 mg/kg/injection, schedule: Q01DX009 (ip), vehicle: Klucel (hydroxypropylcellulose) (HPC)
[6] = dose: 3.12 mg/kg/injection, schedule: Q01DX009 (ip), vehicle: Klucel (hydroxypropylcellulose) (HPC)
[7] = dose: 12.5 mg/kg/injection, schedule: Q01DX009 (ip), vehicle: Klucel (hydroxypropylcellulose) (HPC)
[8] = dose: 100.0 mg/kg/injection, schedule: Q01DX009 (ip), vehicle: Klucel (hydroxypropylcellulose) (HPC)
[9] = dose: 200.0 mg/kg/injection, schedule: Q01DX009 (ip), vehicle: Klucel (hydroxypropylcellulose) (HPC)
[10] = dose: 25.0 mg/kg/injection, schedule: Q01DX009 (ip), vehicle: Klucel (hydroxypropylcellulose) (HPC)
[11] = dose: 50.0 mg/kg/injection, schedule: Q01DX009 (ip), vehicle: Klucel (hydroxypropylcellulose) (HPC)
[12] = dose: 100.0 mg/kg/injection, schedule: Q04DX003 (ip), vehicle: Klucel (hydroxypropylcellulose) (HPC)
[13] = dose: 200.0 mg/kg/injection, schedule: Q04DX003 (ip), vehicle: Klucel (hydroxypropylcellulose) (HPC)
[14] = dose: 400.0 mg/kg/injection, schedule: Q04DX003 (ip), vehicle: Klucel (hydroxypropylcellulose) (HPC)
[15] = dose: 200.0 mg/kg/injection, schedule: Q01DX009 (ip), vehicle: saline with Tween-80
[16] = dose: 400.0 mg/kg/injection, schedule: Q01DX009 (ip), vehicle: saline with Tween-80

Measured: T/C

O=CN(O)CC(=O)O
inactive: dose: 100.0 mg/kg/injection, schedule: Q04DX003 (ip), vehicle: saline 97 % of control | dose: 200.0 mg/kg/injection, schedule: Q04DX003 (ip), vehicle: saline 100 % of control | dose: 400.0 mg/kg/injection, schedule: Q04DX003 (ip), vehicle: saline 100 % of control

CC(C)NC(=O)c1ccc(N/N=[N+](/C)[O-])cc1
inactive: [1] 121 % of control | [2] 107 % of control | [3] 93 % of control and 111 % of control

N#Cc1ccccc1N=NNc1ccccc1C#N
inactive: [4] 90 % of control | [5] 102 % of control | [6] 96 % of control | [7] 86 % of control

CCCCCCCCCCCCNC(=O)Nc1cc(C)ccc1C
inactive: [8] 92 % of control | [9] 96 % of control

COc1cccc(/C=N\N=C\c2cccc(OC)c2OC)c1OC
inactive: dose: 6.25 mg/kg/injection, schedule: Q01DX009 (ip), vehicle: saline 95 % of control | dose: 12.5 mg/kg/injection, schedule: Q01DX009 (ip), vehicle: saline 97 % of control

COc1ccc(NC(=O)Nc2ccc(C)cc2C)cc1
inactive: [10] 106 % of control | [11] 101 % of control | [8] 106 % of control | [9] 93 % of control

O=C=Nc1ccc(Cc2ccc(N=C=O)cc2)cc1
inactive: dose: 400.0 mg/kg/injection, schedule: Q01DX009 (ip), vehicle: Klucel (hydroxypropylcellulose) (HPC) 123 % of control

O=C1c2ccccc2C(=O)N1C[P+](c1ccccc1)(c1ccccc1)c1ccccc1
inactive: dose: 6.25 mg/kg/injection, schedule: Q01DX009 (ip), vehicle: water 117 % of control | dose: 12.5 mg/kg/injection, schedule: Q01DX009 (ip), vehicle: water 112 % of control | dose: 25.0 mg/kg/injection, schedule: Q01DX009 (ip), vehicle: water 123 % of control

Cc1ccc(S(=O)(=O)N2CCCC(=O)c3ccc(Cl)cc32)cc1
inactive: [12] 103 % of control | [13] 99 % of control | [14] 99 % of control

COc1cc(OC)c(OC)cc1/C=C\c1ccnc2ccccc12
inactive: dose: 100.0 mg/kg/injection, schedule: Q01DX009 (ip), vehicle: saline 97 % of control | dose: 200.0 mg/kg/injection, schedule: Q01DX009 (ip), vehicle: saline 105 % of control | dose: 400.0 mg/kg/injection, schedule: Q01DX009 (ip), vehicle: saline 107 % of control | dose: 800.0 mg/kg/injection, schedule: Q01DX009 (ip), vehicle: saline 102 % of control

Cc1cc(C)nc(NS(=O)(=O)c2ccc(N=Nc3nc4[nH]c(N)nc(=S)c4[nH]3)cc2)n1
inactive: dose: 0.19 mg/kg/injection, schedule: Q01DX009 (ip), vehicle: Klucel (hydroxypropylcellulose) (HPC) 115 % of control | dose: 0.39 mg/kg/injection, schedule: Q01DX009 (ip), vehicle: Klucel (hydroxypropylcellulose) (HPC) 111 % of control | [4] 105 % of control | [5] 102 % of control

COC(=O)CCCCCNC(=O)NCCCCCC(=O)OC
inactive: [12] 86 % of control | [13] 95 % of control | [14] 91 % of control

Cc1ccc(C)c(NC(=O)c2ccc(Cl)cc2Cl)c1
inactive: dose: 100.0 mg/kg/injection, schedule: Q04DX003 (ip), vehicle: saline with Tween-80 100 % of control | dose: 200.0 mg/kg/injection, schedule: Q04DX003 (ip), vehicle: saline with Tween-80 94 % of control | dose: 400.0 mg/kg/injection, schedule: Q04DX003 (ip), vehicle: saline with Tween-80 88 % of control

CCOC(=O)C(=O)CC(=O)/C=C/c1ccccc1
inactive: [2] 94 % of control | [3] 97 % of control | [15] 97 % of control

COC(=O)/C=C/C=C(c1ccccc1)c1ccccc1
inactive: [2] 94 % of control | [3] 100 % of control | [15] 94 % of control | [16] 94 % of control

O=CNC(CSSCC(NC=O)C(=O)O)C(=O)O (stereo unspecified)
inactive: [3] 93 % of control | [15] 95 % of control

CCCCCCC(=O)CCCCCCCCCCCCC(=O)OC
inactive: dose: 1.56 mg/kg/injection, schedule: Q01DX009 (ip), vehicle: saline with Tween-80 98 % of control | dose: 3.13 mg/kg/injection, schedule: Q01DX009 (ip), vehicle: saline with Tween-80 105 % of control | dose: 6.25 mg/kg/injection, schedule: Q01DX009 (ip), vehicle: saline with Tween-80 97 % of control

Cc1cccc(NC(=O)Nc2ccccc2)c1C
inactive: [8] 100 % of control

Cn1c(=O)c2[nH]c(Cc3cccc(O)c3)nc2n(C)c1=O
inactive: dose: 3.12 mg/kg/injection, schedule: Q01DX009 (ip), vehicle: suspension in saline 94 % of control | dose: 6.25 mg/kg/injection, schedule: Q01DX009 (ip), vehicle: suspension in saline 96 % of control | dose: 100.0 mg/kg/injection, schedule: Q01DX009 (ip), vehicle: suspension in saline 94 % of control

CCC(=O)/C=C/C1C(C)=CCCC1(C)C (stereo unspecified)
inactive: [2] 104 % of control | [3] 102 % of control

CC1(C)OC2OC(COC(=O)c3ccccc3)C(=O)C2O1 (stereo unspecified)
inactive: [1] 94 % of control | [2] 97 % of control | [3] 93 % of control | [16] 88 % of control

O=C1C=C(SCCO)C(=O)c2ccccc21
inactive: dose: 13.0 micrograms/kg/injection, schedule: Q01DX009 (ip), vehicle: saline with Tween-80 100 % of control | dose: 18.7 micrograms/kg/injection, schedule: Q01DX009 (ip), vehicle: saline with Tween-80 94 % of control | dose: 20.0 micrograms/kg/injection, schedule: Q01DX009 (ip), vehicle: saline with Tween-80 92 % of control | dose: 30.0 micrograms/kg/injection, schedule: Q01DX009 (ip), vehicle: saline with Tween-80 95 % of control | dose: 45.0 micrograms/kg/injection, schedule: Q01DX009 (ip), vehicle: saline with Tween-80 117 % of control | dose: 90.0 micrograms/kg/injection, schedule: Q01DX009 (ip), vehicle: saline with Tween-80 107 % of control

CCCC[N+](CCCC)(CCCC)CCCC.Cc1ccc([SH2+])c([SH2+])c1.Cc1ccc([SH2+])c([SH2+])c1.[Fe+3]
inactive: [10] 93 % of control | [1] 97 % of control | [11] 99 % of control | [2] 98 % of control | [8] 93 % of control | [3] 103 % of control | [9] 93 % of control | [15] 98 % of control

CC(=O)C1=C(O)C2C3c4c[nH]c5cccc(c45)CC3C(C)(C)N2C1=O (stereo unspecified)
inactive: dose: 0.13 mg/kg/injection, schedule: Q01DX009 (ip), vehicle: saline 102 % of control | dose: 0.25 mg/kg/injection, schedule: Q01DX009 (ip), vehicle: saline 106 % of control | dose: 0.5 mg/kg/injection, schedule: Q01DX009 (ip), vehicle: saline 106 % of control | dose: 1.0 mg/kg/injection, schedule: Q01DX009 (ip), vehicle: saline 106 % of control | dose: 2.0 mg/kg/injection, schedule: Q01DX009 (ip), vehicle: saline 102 % of control | dose: 4.0 mg/kg/injection, schedule: Q01DX009 (ip), vehicle: saline 107 % of control | dose: 8.0 mg/kg/injection, schedule: Q01DX009 (ip), vehicle: saline 111 % of control

CN(Cc1cnc2nc(N)nc(N)c2n1)c1c(Cl)cc(C(=O)NC(CCC(=O)O)C(=O)O)cc1Cl (stereo unspecified)
inactive: [6] 116 % of control | dose: 6.25 mg/kg/injection, schedule: Q01DX009 (ip), vehicle: Klucel (hydroxypropylcellulose) (HPC) 111 % of control | [7] 116 % of control | dose: 17.5 mg/kg/injection, schedule: Q01DX011 (ip), vehicle: saline 99 % of control | [10] 109 % of control | dose: 35.0 mg/kg/injection, schedule: Q01DX011 (ip), vehicle: saline 107 % of control | [11] 111 % of control

C=CS(=O)(=O)c1ccccc1
inactive: dose: 12.5 mg/kg/injection, schedule: Q01DX009 (ip), vehicle: saline with Tween-80 96 % of control | [1] 94 % of control | [2] 98 % of control

Cc1ccccc1Oc1ccccc1N
inactive: dose: 50.0 mg/kg/injection, schedule: Q01DX009 (sc), vehicle: olive oil, sesame oil, peanut oil 88 % of control | dose: 100.0 mg/kg/injection, schedule: Q01DX009 (sc), vehicle: olive oil, sesame oil, peanut oil 90 % of control | dose: 200.0 mg/kg/injection, schedule: Q01DX009 (sc), vehicle: olive oil, sesame oil, peanut oil 97 % of control | dose: 400.0 mg/kg/injection, schedule: Q01DX009 (sc), vehicle: olive oil, sesame oil, peanut oil 90 % of control
